Data on ten compounds can be found in US10738057B2, “Tertiary alcohols as PI3K-γ inhibitors” (Incyte Corporation, priority 2017, dated 2020).

Test [1] deals with PI3Kδ (p110δ/p85α) Recombinant Human Protein (Homo sapiens (Human), UniProt O00329). Kind of test: PI3Kδ scintillation proximity assay. It counts as biochemical. The settings on record: 20 μM PIP2, 2 μM ATP, 3.4 nM PI3Kδ, 120 min, room temperature. A digest of the protocol: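 Recombinant human p110δ/p85α was run at room temperature in 20 mM MOPS pH 6.7, 10 mM MgCl2, 5 mM DTT, 0.03% CHAPS, 2% DMSO. Substrates were 20 µM PIP2 and 2 µM ATP with [γ-33P]ATP. Product was captured overnight on WGA SPA beads and counted by scintillation; IC50 fitted from percent of solvent control versus log concentration.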
A general note: In a scintillation proximity assay essentially only radioactivity close to the scintillant gives light.

Test [2] has as its system Phosphorylated Ribosomal Protein S6 (RPS6) in THP-1 cells. Kind of test: THP-1 RPS6 ELISA assay. It counts as cell-based, Human. Particulars: Homo sapiens, THP-1, THP-1 cells, serum starved, 2 h compound, 10 nM MCP-1 for 15 min, phospho-RPS6 ELISA; read-out: PI3Kγ_THP1_RPS6_ELISA IC50. A digest of the protocol:
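Serum-starved THP-1 cells (2×10^5/well, RPMI) preincubated with compound 2 h at 37° C, then stimulated with 10 nM MCP-1 for 15 min. Lysates assayed by phospho-RPS6 ELISA, absorbance 450 nm (540 nm correction); IC50 from percent inhibition versus log concentration.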
A general note: An ELISA detects its analyte on a solid surface through an enzyme-linked reagent.

The target in test [3] is PI3Kγ (p110γ) Recombinant Human Protein (Homo sapiens (Human), UniProt P48736). The experiment in a line: PI3K-γ scintillation proximity assay. It counts as biochemical. The settings on record: 20 μM PIP2, 2 μM ATP, 13 nM PI3Kγ, 120 min, room temperature. A digest of the protocol:
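Radiometric SPA in 20 mM MOPS pH 6.7, 10 mM MgCl2, 5 mM DTT, 0.03% CHAPS, 2% DMSO. Stopped with EDTA and WGA SPA beads for scintillation counting. IC50 fitted from % solvent-control activity versus log concentration.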

Each structure is given as a SMILES string. Structures can show the parent of a compound that is named as a salt. Where two headings read alike, the source gives them in different places.

Sequence of PI3Kγ (p110γ) Recombinant Human Protein (P48736 whole entry): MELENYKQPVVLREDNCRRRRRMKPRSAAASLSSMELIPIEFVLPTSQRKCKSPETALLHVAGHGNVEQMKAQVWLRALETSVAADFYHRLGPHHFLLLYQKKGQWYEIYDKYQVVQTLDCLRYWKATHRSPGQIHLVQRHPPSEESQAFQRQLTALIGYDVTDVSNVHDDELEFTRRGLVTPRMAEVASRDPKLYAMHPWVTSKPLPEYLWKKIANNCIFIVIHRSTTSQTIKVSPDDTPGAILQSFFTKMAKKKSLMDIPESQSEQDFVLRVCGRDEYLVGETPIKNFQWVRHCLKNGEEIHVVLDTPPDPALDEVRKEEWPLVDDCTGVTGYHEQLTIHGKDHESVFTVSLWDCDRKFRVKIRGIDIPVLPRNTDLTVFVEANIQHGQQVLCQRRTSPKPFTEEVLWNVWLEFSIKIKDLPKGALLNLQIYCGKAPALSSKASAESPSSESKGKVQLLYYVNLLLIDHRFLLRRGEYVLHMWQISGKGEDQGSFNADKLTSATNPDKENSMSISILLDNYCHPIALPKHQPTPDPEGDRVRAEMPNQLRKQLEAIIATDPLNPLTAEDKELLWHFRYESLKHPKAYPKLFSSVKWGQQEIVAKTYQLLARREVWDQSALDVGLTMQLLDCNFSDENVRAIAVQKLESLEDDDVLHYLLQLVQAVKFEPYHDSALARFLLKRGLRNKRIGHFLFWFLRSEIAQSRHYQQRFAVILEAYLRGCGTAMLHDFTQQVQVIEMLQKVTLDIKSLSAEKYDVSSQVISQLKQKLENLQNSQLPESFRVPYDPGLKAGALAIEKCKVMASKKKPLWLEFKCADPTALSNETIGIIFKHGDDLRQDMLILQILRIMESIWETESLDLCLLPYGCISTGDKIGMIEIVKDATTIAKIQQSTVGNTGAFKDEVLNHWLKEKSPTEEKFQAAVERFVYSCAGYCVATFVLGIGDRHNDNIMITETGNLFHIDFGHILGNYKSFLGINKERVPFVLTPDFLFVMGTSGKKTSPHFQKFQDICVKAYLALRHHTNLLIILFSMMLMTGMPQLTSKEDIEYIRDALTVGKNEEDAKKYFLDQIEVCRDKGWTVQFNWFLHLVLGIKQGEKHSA
Sequence of PI3Kδ (p110δ/p85α) Recombinant Human Protein (O00329 whole entry): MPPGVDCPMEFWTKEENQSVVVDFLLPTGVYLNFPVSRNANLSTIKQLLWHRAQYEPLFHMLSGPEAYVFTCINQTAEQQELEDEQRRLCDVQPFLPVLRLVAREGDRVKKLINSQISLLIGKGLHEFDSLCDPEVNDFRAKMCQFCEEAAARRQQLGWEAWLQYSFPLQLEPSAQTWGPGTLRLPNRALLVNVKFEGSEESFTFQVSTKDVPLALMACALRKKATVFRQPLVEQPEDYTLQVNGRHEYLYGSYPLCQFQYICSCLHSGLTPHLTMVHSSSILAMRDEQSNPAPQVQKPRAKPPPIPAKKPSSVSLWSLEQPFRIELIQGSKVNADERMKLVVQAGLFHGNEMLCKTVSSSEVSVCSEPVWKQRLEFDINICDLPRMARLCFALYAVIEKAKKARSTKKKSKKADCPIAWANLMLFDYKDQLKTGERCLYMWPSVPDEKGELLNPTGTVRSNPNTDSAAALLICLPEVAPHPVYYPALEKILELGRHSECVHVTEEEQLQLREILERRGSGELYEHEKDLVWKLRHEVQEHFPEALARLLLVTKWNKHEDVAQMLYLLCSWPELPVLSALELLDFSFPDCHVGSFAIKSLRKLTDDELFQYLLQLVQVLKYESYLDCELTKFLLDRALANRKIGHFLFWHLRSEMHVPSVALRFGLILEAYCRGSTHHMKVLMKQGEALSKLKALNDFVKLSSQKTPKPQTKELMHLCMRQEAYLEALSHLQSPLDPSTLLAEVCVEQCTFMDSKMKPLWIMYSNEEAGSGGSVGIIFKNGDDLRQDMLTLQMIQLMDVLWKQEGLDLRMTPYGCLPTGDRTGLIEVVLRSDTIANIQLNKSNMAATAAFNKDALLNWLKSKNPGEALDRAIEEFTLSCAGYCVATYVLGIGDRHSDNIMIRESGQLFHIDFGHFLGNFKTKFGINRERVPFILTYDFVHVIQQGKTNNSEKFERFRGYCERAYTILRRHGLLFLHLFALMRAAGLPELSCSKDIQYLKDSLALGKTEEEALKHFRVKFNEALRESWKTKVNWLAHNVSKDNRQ
Sequence of PI3Kδ (p110δ/p85α) Recombinant Human Protein (P27986 whole entry partner): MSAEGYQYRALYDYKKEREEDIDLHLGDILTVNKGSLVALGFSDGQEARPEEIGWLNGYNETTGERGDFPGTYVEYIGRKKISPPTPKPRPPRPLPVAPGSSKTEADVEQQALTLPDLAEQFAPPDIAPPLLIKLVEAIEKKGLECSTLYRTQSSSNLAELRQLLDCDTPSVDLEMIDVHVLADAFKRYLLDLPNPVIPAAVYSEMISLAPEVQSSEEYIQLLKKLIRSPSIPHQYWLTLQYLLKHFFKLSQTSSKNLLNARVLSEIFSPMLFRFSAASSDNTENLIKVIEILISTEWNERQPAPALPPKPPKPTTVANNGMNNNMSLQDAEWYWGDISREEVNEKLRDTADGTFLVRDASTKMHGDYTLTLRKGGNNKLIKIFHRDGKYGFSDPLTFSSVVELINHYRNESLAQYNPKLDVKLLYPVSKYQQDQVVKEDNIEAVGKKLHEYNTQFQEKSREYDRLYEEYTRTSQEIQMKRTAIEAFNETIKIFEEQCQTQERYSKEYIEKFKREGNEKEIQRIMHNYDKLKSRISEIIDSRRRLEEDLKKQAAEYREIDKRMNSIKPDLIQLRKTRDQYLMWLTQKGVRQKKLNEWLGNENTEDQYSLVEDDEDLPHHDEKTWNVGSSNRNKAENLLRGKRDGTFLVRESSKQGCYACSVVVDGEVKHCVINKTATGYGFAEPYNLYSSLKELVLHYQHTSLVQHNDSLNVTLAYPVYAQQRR

As for `Cc1ccc(C(C)(O)C(F)(F)F)cc1-c1cnc2c(N)nc(-c3ccnc(CO)c3)cn12` (stereo not drawn) [Example 10, 2-(3-(8-Amino-6-(2-(hydroxymethyl)pyridin-4-yl)imidazo[1,2-a]pyrazin-3-yl)-4-methylphenyl)-1,1,1-trifluoropropan-2-ol], the IC50 in test [1] (read-out: PI3Kδ IC50) was < 100 nM; in test [2], 100 to 500 nM; in test [3], < 100 nM.
Regarding `Cc1ccc(C(O)(c2nnnn2C)C(F)(F)F)cc1-c1cnc2c(N)nc(C(F)(F)F)cn12` (stereo not drawn) [Example 13, 1-(3-(8-Amino-6-(trifluoromethyl)imidazo[1,2-a]pyrazin-3-yl)-4-methylphenyl)-2,2,2-trifluoro-1-(1-methyl-1H-tetrazol-5-yl)ethan-1-ol trifluoroacetate], the IC50 was 100 to 500 nM in test [1] (read-out: PI3Kδ IC50), 100 to 500 nM in test [2] and < 100 nM in test [3].
In the case of `CNCCC(O)(c1ccc(C)c(-c2cnc3c(N)nc(C(F)(F)F)cn23)c1)C(F)(F)F` (stereo not drawn) [Example 14, 2-(3-(8-Amino-6-(trifluoromethyl)imidazo[1,2-a]pyrazin-3-yl)-4-methylphenyl)-1,1,1-trifluoro-4-(methylamino)butan-2-ol bis(2,2,2-trifluoroacetate)], the IC50 in test [1] (PI3Kδ IC50 (nM)) is 100 to 500 nM; in test [2] it was < 100 nM; in test [3], < 100 nM.
On to `Cc1ccc(C(O)(CCO)C(F)(F)F)cc1-c1cnc2c(N)nc(C(F)(F)F)cn12` (stereo not drawn) [Example 18, 3-(3-(8-Amino-6-(trifluoromethyl)imidazo[1,2-a]pyrazin-3-yl)-4-methylphenyl)-4,4,4-trifluorobutane-1,3-diol], for which the half-maximal inhibitory concentration (IC50) in test [1] (read-out: PI3Kδ IC50) was 100 to 500 nM; in test [2], 100 to 500 nM; in test [3], < 100 nM.
`Cc1ccc(C(O)(C2CC2)C(F)(F)F)cc1-c1cnc2c(N)nc(C(F)(F)F)cn12` (stereo not drawn) [Example 19, 1-(3-(8-Amino-6-(trifluoromethyl)imidazo[1,2-a]pyrazin-3-yl)-4-methylphenyl)-1-cyclopropyl-2,2,2-trifluoroethan-1-ol]: the IC50 in test [1] (read-out: PI3Kδ IC50) is 100 to 500 nM; in test [2], > 1000 nM; in test [3], < 100 nM.
With `Cc1ccc(C(C)(O)C(F)(F)F)cc1-c1cnc2c(N)nc(-c3cnc(C4CC4)s3)cn12` (stereo not drawn) [Example 20, 2-(3-(8-Amino-6-(2-cyclopropylthiazol-5-yl)imidazo[1,2-a]pyrazin-3-yl)-4-methylphenyl)-1,1,1-trifluoropropan-2-ol, TFA], the results for the IC50 in test [1] (read-out: PI3Kδ IC50), in test [2] and in test [3] were < 100 nM, 100 to 500 nM and < 100 nM, respectively.
For the compound `COc1cnc(-c2cn3c(-c4cc(C(C)(O)C(F)(F)F)ccc4C)cnc3c(N)n2)s1` (stereo not drawn) [Example 21, 2-(3-(8-Amino-6-(5-methoxythiazol-2-yl)imidazo[1,2-a]pyrazin-3-yl)-4-methylphenyl)-1,1,1-trifluoropropan-2-ol, TFA], the IC50 in test [1] (read-out: PI3Kδ IC50) is < 100 nM; in test [2] it was 100 to 500 nM; in test [3], < 100 nM.
Consider `Cc1cc(CNC(=O)c2cn3c(-c4cc(C(C)(O)C(F)(F)F)ccc4C)cnc3c(N)n2)on1` (stereo not drawn) [Example 22, 8-Amino-3-(2-methyl-5-(1,1,1-trifluoro-2-hydroxypropan-2-yl)phenyl)-N-((3-methylisoxazol-5-yl)methyl)imidazo[1,2-a]pyrazine-6-carboxamide, TFA], for which the IC50 is < 100 nM in test [1] (read-out: PI3Kδ IC50), 100 to 500 nM in test [2] and < 100 nM in test [3].
As to `Cc1ccc(C(O)C(F)(F)F)cc1-c1cnc2c(N)nc(C(F)(F)F)cn12` (stereo not drawn) [Example 23, 1-(3-(8-Amino-6-(trifluoromethyl)imidazo[1,2-a]pyrazin-3-yl)-4-methylphenyl)-2,2,2-trifluoroethan-1-ol trifluoroacetate salt], the IC50 in test [1] (read-out: PI3Kδ IC50) was 500 to 2000 nM; in test [2], 500 to 1000 nM; in test [3], < 100 nM.
Take `Cc1ncc(-c2cn3c(-c4cc(C(C)(O)C(F)F)ccc4C)cnc3c(N)n2)o1` (stereo not drawn) [Example 28, 2-(3-(8-Amino-6-(2-methyloxazol-5-yl)imidazo[1,2-a]pyrazin-3-yl)-4-methylphenyl)-1,1-difluoropropan-2-ol]: the IC50 in test [1] (read-out: PI3Kδ IC50) is < 100 nM; in test [2] it was 100 to 500 nM; in test [3], < 100 nM.

Broadly, the IC50 is the concentration that gives 50% inhibition.
